Laboratory results as given in US20080319175A1, “Transthyretin Stabilization” (The Scripps Research Institute, priority 2004, published 2008).
“Also recorded” adds a separate entry of the source.

Assays:
WT-TTR = biological target: T1, WT-TTR (Homo sapiens, UniProt P02766); experiment: stagnant acid-mediated TTR fibril formation assay (turbidity); format: biochemical; conditions: WT-TTR 3.6 μM; for inhibitor potency against fibril formation (in words): inhibitor 3.6 μM, pH 4.4, 72 h
T1 construct: made in house
Protocol: (§1) TTR amyloid inhibition efficacy was probed using a stagnant fibril formation assay described previously, wherein partial denaturation was triggered by acidification (pH 4.4, 37° C.) (Colon, W.; Kelly, J. W. Biochemistry 1992, 31, 8654-8660). Briefly, a test compound (7.2 or 3.6 μM) is incubated with TTR (3.6 μM) for 30 min in pH 7 buffer. Amyloidogenesis is then initiated by lowering to pH 4.4, where maximal fibril formation is observed with WT-TTR after 72 h (37° C.). The turbidity in the presence of a potential inhibitor (Ttest) is compared to that of a solution lacking a test compound (Tcontrol). […] From experience we know that excellent inhibitors allow <10% fibril formation at a small molecule concentration of 7.2 μM and <40% fibril formation at a concentration equal to that of WT-TTR (3.6 μM) (Hammarstrom, P.; et al. Science 2003, 299, 713-716; Klabunde, T.; et al. Nature Struct. Biol. 2000, 7, 312-321; Razavi, H.; et al. Angew Chem 2003, 42, 2758-2761; Miroy, G. J.; et al. Proc. Natl. Acad. Sci. USA 1996, 93, 15051-15056; Peterson, S. A.; et al. Proc. Natl. Acad. Sci. USA 1998, 95, 12956-12960; Baures, P. W.; et al. Bioorg. Med. Chem. 1998, 6, 1389-1401; Baures, P. W.; et al. Bioorg. Med. Chem. 1999, 7, 1339-1347; Petrassi, H. M.; et al. J. Am. Chem. Soc. 2000, 122, 2178-2192; McCammon, M. G.; et al. Structure 2002, 10, 851-863; Oza, V. B.; et al. J. Med. Chem. 2002, 45, 321-332; Sacchettini, J. C.; et al. Nature Rev. Drug Disc. 2002, 1, 267-275; Green, N. S.; et al. J. Am. Chem. Soc. 2003, 125, 13404-13414; Adamski-Werner, S. L.; et al. J. Med. Chem. 2004, 47, 355-374; Miller Sean, R.; et al. Lab. Inv. 2004, 84, 545-552). […] Therefore, when both the ligand and TTR are at equal concentrations, a population of TTR•I, TTR•I2 and unliganded TTR is observed, dictated by the dissociation constants. It is now established by other studies that inhibitor occupancy of only one of the two TTR binding sites is sufficient to stabilize the entire tetramer against amyloidogenesis (Wiseman, R. L.; et al. J. Am. Chem. Soc. 2005, in press). This is further supported by the observation herein that twenty-six of these dibenzofurans are excellent TTR amyloidogenesis inhibitors (<40% fibril formation) at a concentration equal to that of TTR (3.6 μM each, FIG. 3).
(§2) The procedures used for bacterial expression of TTR (Lai, Z.; et al. Biochemistry 1996, 35, 6470-6482), the stagnant fibril formation assay (Colon, W.; Kelly, J. W. Biochemistry 1992, 31, 8654-8660; Lai, Z.; et al. Biochemistry 1996, 35, 6470-6482), the blood plasma binding selectivity assay (Purkey, H. E.; et al. Proc. Natl. Acad. Sci. USA 2001, 98, 5566-5571), and analytical ultracentrifugation (Lashuel, H. A.; et al. Biochemistry 1998, 37, 17851-17864) have all been described in detail previously.
FIG. 2 is a table highlighting the concentration dependent acid-substituted dibenzofuran activity against WT-TTR (3.6 μM) amyloid fibril formation (f.f.) at pH 4.4 (72 h). Values represent the extent of f.f. and thus inhibitor efficacy relative to WT-TTR fibril formation in the absence of inhibitor (assigned to be 100%): complete inhibition is equivalent to 0% f.f.
(§3) FIG. 3 is a chart showing a summary of dibenzofuran-based amyloid inhibition activity ([…]) against WT-TTR ([…]) fibril formation (pH 4.4, 72 h) and binding stoichiometry to TTR in human blood plasma. % Fibril formation (f.f.) values in the middle column represent the extent of f.f., and thus inhibitor efficacy, relative to WT-TTR f.f. in the absence of inhibitor (assigned to be 100%). Complete inhibition is equivalent to 0% f.f. The right column depicts the observed stoichiometry of inhibitor (dosed at […], ˜2-3× the concentration of plasma TTR) bound to TTR in blood plasma as determined using the antibody capture method.
FIG. 6 is a chart showing dibenzofuran-based inhibitor activity (7.2 μM) against WT-TTR (3.6 μM) amyloid fibril formation (f.f.) at pH 4.4 (72 h). […]

[1] = biological target: T2, TTR in human blood plasma (Homo sapiens, UniProt P02766); experiment: blood plasma TTR binding selectivity, antibody capture method; conditions: inhibitor 10.8 μM
T2 construct: from tissue; host or cells: human blood plasma
Protocol: Inhibitor binding selectivity to TTR in human blood plasma was assessed using a previously established antibody capture method (Purkey, H. E.; et al. Proc. Natl. Acad. Sci. USA 2001, 98, 5566-5571). In this evaluation, inhibitors (10.8 μM, ˜2-3× the natural concentration of TTR) are incubated in human blood plasma for 24 h at 37° C. Quenched sepharose resin is then added to the plasma to remove any small molecules that would bind to the resin as opposed to TTR. TTR and any TTR-bound small molecule is then immunocaptured using a polyclonal TTR antibody covalently attached to sepharose resin. After washing the resin (5×10 min washes), the antibody-TTR complex is dissociated at high pH and analyzed by RP-HPLC. The relative stoichiometry between TTR and inhibitor is then calculated from their HPLC peak areas using standard curves.
as §2, §3

[2] = precipitation of small molecule under acid-mediated amyloidogenic conditions in the absence of TTR; format: physicochemical; conditions: 3.6 μM, pH 4.4, 37° C., 72 h
Protocol: as §1

| Compound | inhibitor potency against fibril formation (in words) (WT-TTR) | binding selectivity to TTR in human blood plasma (in words) [1] | precipitation of compound in the absence of TTR [2] | further results |
| --- | --- | --- | --- | --- |
| O=C(O)c1cccc(-c2ccc(C(=O)O)c3oc4c(C(=O)O)cccc4c23)c1 [Compound 69] | amongst the most potent | modest |  |  |
| O=C(O)c1cccc2c1oc1c(C(=O)O)ccc(Nc3ccccc3F)c12 [Compound 36] | most potent |  |  |  |
| O=C(O)c1cc(Nc2ccc(C(=O)O)c3oc4c(C(=O)O)cccc4c23)cc(C(=O)O)c1 [Compound 34] | all the inhibitors (except 34) display increased potency relative to the parent compound (1) |  |  | inhibition of WT-TTR fibril formation at 7.2 μM inhibitor (in words) (WT-TTR; inhibitor 7.2 μM, pH 4.4, 37° C., 72 h): not as effective; also recorded: all but one (34) completely inhibit fibril formation |
| O=C(O)c1cccc2c1oc1c(C(=O)O)ccc(-c3cc(Cl)cc(Cl)c3)c12 [Compound 63] | most potent |  |  |  |
| O=C(O)c1cccc2c1oc1c(C(=O)O)ccc(Nc3cc(C(F)(F)F)cc(C(F)(F)F)c3)c12 [Compound 31] |  | all but two (31 and 35) exhibit dramatically increased binding selectivity |  |  |
| O=C(O)c1cccc2c1oc1c(C(=O)O)ccc(Nc3cccc(C(F)(F)F)c3)c12 [Compound 26] |  |  | no measurable precipitation |  |
| O=C(O)c1cccc2c1oc1c(C(=O)O)ccc(-c3ccccc3F)c12 [Compound 67] | most potent |  |  |  |
| O=C(O)c1cccc2c1oc1c(C(=O)O)ccc(Nc3cccc(Cl)c3)c12 [Compound 27] |  |  | no measurable precipitation |  |
| O=C(O)c1cccc2c1oc1c(C(=O)O)ccc(Nc3cc(Cl)cc(Cl)c3)c12 [Compound 30] |  |  | no measurable precipitation |  |
| O=C(O)c1cccc2c1oc1c(C(=O)O)ccc(Oc3cccc(C(F)(F)F)c3)c12 [Compound 45] |  |  | no measurable precipitation |  |
| O=C(O)c1cccc2c1oc1c(C(=O)O)ccc(-c3cc(F)cc(F)c3)c12 [Compound 62] |  |  | no measurable precipitation |  |
| O=C(O)c1cccc(Nc2ccc(C(=O)O)c3oc4c(C(=O)O)cccc4c23)c1 [Compound 33] | amongst the most potent | modest |  |  |
| O=C(O)c1cccc2c1oc1c(C(=O)O)cccc12 [Compound 1, dibenzofuran-4,6-dicarboxylic acid, reference compound] |  | no measurable binding selectivity |  |  |
| O=C(O)c1ccc(Nc2ccc(C(=O)O)c3oc4c(C(=O)O)cccc4c23)cc1 [Compound 35] |  | all but two (31 and 35) exhibit dramatically increased binding selectivity |  |  |
